Where a name gives a salt, the structure may show the parent alone. Read-outs that look alike come from different tables or passages of the source.
How the values were obtained:
KMS-12-BM cell lines = experiment: KMS12 #2 flow cytometry assay (phospho-BAD Ser112); assay type: cell-based; settings: Homo sapiens, 110 min; KMS-12-BM cells, pBAD Ser112 by flow cytometry, 110 min with compound; read-out: KMS-12-Flow IC50 IP
Pim-1 = Pim-1 (Homo sapiens (Human), UniProt P11309); experiment: Pim-Mn enzyme assay (HTRF, 384-well), Pim-1; assay type: biochemical; settings: read-out: Pim-1-Mn IC50 IP
Pim-2 = Pim-2 (Homo sapiens (Human), UniProt Q9P1W9); experiment: Pim-Mn enzyme assay (HTRF, 384-well), Pim-2; assay type: biochemical; settings: read-out: Pim-2-Mn IC50 IP
[1] = Pim-1 enzyme 5 pM, ATP 1.5 μM, BAD (S112) 0.5 μM, HTRF, 22-point curve
[2] = Pim-2 enzyme 0.5 pM, ATP 1.5 μM, BAD (S112) 0.5 μM, HTRF, 22-point curve

Sequence of Pim-2 (Q9P1W9 whole entry): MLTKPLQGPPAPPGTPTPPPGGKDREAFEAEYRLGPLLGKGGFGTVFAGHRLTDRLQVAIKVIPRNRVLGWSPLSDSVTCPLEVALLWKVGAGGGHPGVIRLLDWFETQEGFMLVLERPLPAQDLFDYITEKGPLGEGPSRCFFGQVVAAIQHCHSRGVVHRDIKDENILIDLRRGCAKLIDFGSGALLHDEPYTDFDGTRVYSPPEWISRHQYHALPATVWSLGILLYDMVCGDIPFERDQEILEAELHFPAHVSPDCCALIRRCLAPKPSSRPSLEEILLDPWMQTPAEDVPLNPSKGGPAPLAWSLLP
Sequence of Pim-1 (P11309 whole entry): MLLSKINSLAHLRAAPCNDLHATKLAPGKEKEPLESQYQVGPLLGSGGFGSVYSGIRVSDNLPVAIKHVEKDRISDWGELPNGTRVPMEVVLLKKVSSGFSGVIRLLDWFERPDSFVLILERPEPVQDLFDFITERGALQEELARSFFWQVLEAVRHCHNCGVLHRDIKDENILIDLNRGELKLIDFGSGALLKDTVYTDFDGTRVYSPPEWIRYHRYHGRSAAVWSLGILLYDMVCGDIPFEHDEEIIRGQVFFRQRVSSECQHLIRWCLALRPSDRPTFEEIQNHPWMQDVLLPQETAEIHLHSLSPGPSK

Structure (SMILES)	IC50 (KMS-12-BM cell lines) [nM]	IC50 (Pim-1; [1]) [nM]	IC50 (Pim-2; [2]) [nM]	IC50 (Pim-1) [nM]	IC50 (Pim-2) [nM]
Cc1nc2cccc(-c3cc4c(n3C)CCNC4=O)c2nc1NC(C)(C)C [Example 314, 2-(3-(tert-butylamino)-2-methylquinoxalin-5-yl)-1-methyl-6,7-dihydro-1H-pyrrolo[3,2-c]pyridin-4(5H)-one]	6730	9.48	8.58		
Cc1nc2cccc(-c3cc4c([nH]3)CCN(C(=O)OC(C)(C)C)C4=O)c2nc1NC(C)(C)C [Example 291, tert-butyl 2-(3-(tert-butylamino)-2-methylquinoxalin-5-yl)-4-oxo-6,7-dihydro-1H-pyrrolo[3,2-c]pyridine-5(4H)-carboxylate]	7920	99	65.2		
CN(c1ncc2cccc(-c3cc4c([nH]3)CCNC4=O)c2n1)C(C)(C)C [Example 377, 2-(2-(tert-butyl(methyl)amino)quinazolin-8-yl)-6,7-dihydro-1H-pyrrolo[3,2-c]pyridin-4(5H)-one]	1630	2.43	3.32		
Cc1nc2cccc(-c3cc4c([nH]3)[C@@H](C)NC4=O)c2nc1NC(C)C [Example 287, (6R)-6-methyl-2-(2-methyl-3-((1-methylethyl)amino)-5-quinoxalinyl)-5,6-dihydropyrrolo[3,4-b]pyrrol-4(1H)-one]	75.8	1.78	1.64		
Cc1nc2cccc(-c3cc4c([nH]3)[C@@H](C)NC4=O)c2nc1NCC(F)(F)F [Example 294, (6R)-6-methyl-2-(2-methyl-3-((2,2,2-trifluoroethyl)amino)-5-quinoxalinyl)-5,6-dihydropyrrolo[3,4-b]pyrrol-4(1H)-one]	165	1.23	2.23		
Cc1nc2ccc(F)c(-c3cc4c([nH]3)[C@H]([C@@H](C)O)NC4=O)c2nc1NC1CC1 [Example 352, (6R)-2-(3-(cyclopropylamino)-6-fluoro-2-methyl-5-quinoxalinyl)-6-((1R)-1-hydroxyethyl)-5,6-dihydropyrrolo[3,4-b]pyrrol-4(1H)-one]	188	1.59	2.45		
Cc1nc2ccc(F)c(-c3cc4c([nH]3)C3(CC3)NC4=O)c2nc1NC(C)(C)C [Example 295, 2′-(3-(tert-butylamino)-6-fluoro-2-methylquinoxalin-5-yl)-1′H-spiro[cyclopropane-1,6′-pyrrolo[3,4-b]pyrrol]-4′(5′H)-one]	41		0.52	0.562	
Cc1nc2ccc(F)c(-c3cc4c([nH]3)CCNC4=O)c2nc1NC1(C)CCC1 [Example 376, 2-(6-fluoro-2-methyl-3-((1-methylcyclobutyl)amino)quinoxalin-5-yl)-6,7-dihydro-1H-pyrrolo[3,2-c]pyridin-4(5H)-one]	37.6	0.191	0.136		
Cc1nc2cccc(-c3cc4c([nH]3)C3(CC3)NC4=O)c2nc1NCC(F)(F)F [Example 381, 2′-(2-methyl-3-((2,2,2-trifluoroethyl)amino)quinoxalin-5-yl)-1′H-spiro[cyclopropane-1,6′-pyrrolo[3,4-b]pyrrol]-4′(5′H)-one]	215			1.6	1.36
Cc1cccnc1-c1nc2c(-c3cc4c([nH]3)CCNC4=O)cccc2nc1C [Example 430, 2-(2-Methyl-3-(3-methylpyridin-2-yl)quinoxalin-5-yl)-6,7-dihydro-1H-pyrrolo[3,2-c]pyridin-4(5H)-one]	24800	200	257		
Cc1nc2ccc(F)c(-c3cc4c(=O)[nH]ccc4[nH]3)c2nc1NC(C)(C)C [Example 371, 2-(3-(tert-butylamino)-6-fluoro-2-methylquinoxalin-5-yl)-1H-pyrrolo[3,2-c]pyridin-4(5H)-one 2,2,2-trifluoroacetate salt]	148			0.246	0.0667
CC(C)(C)Nc1nc2c(-c3cc4c([nH]3)CCNC4=O)cccc2nc1N [Example 304, 2-(2-amino-3-(tert-butylamino)quinoxalin-5-yl)-6,7-dihydro-1H-pyrrolo[3,2-c]pyridin-4(5H)-one]	87.6	0.791	0.429		
Cc1nc2cccc(-c3cc4c([nH]3)CCCC4=O)c2nc1NC(C)(C)C [Example 303, 2-(3-(tert-butylamino)-2-methylquinoxalin-5-yl)-6,7-dihydro-1H-indol-4(5H)-one]	572	0.839	1.47		
Cc1nc2cccc(-c3cc4c([nH]3)CCNC4=O)c2nc1NC(C)c1ccccn1 (stereo not drawn) [Example 321, 2-(2-methyl-3-((1-(pyridin-2-yl)ethyl)amino)quinoxalin-5-yl)-6,7-dihydro-1H-pyrrolo[3,2-c]pyridin-4(5H)-one]	> 40000	98.6	156		
Cc1cccc(C)c1-c1cnc2cccc(-c3cc4c([nH]3)CCNC4=O)c2n1 [Example 401, 2-(3-(2,6-dimethylphenyl)-5-quinoxalinyl)-1,5,6,7-tetrahydro-4H-pyrrolo[3,2-c]pyridin-4-one]	18500	19.5	34.9		
Cc1nc2cccc(-c3cc4c([nH]3)CCNC4=O)c2nc1-c1nccn1C [Example 432, 2-(2-Methyl-3-(1-methyl-1H-imidazol-2-yl)quinoxalin-5-yl)-6,7-dihydro-1H-pyrrolo[3,2-c]pyridin-4(5H)-one]	> 40000	413	244		
COCCOCC(C)(C)Nc1nc2c(-c3cc4c([nH]3)CCNC4=O)cccc2nc1C [Example 317, 2-(3-((2-(2-methoxyethoxy)-1,1-dimethylethyl)amino)-2-methyl-5-quinoxalinyl)-1,5,6,7-tetrahydro-4H-pyrrolo[3,2-c]pyridin-4-one]	1360	9.94	14.7		
COC1=NCCc2[nH]c(-c3cccc4nc(C)c(NC(C)(C)C)nc34)cc21 [Example 351, N-tert-butyl-8-(4-methoxy-6,7-dihydro-1H-pyrrolo[3,2-c]pyridin-2-yl)-3-methyl-2-quinoxalinamine]	2350	9.23	8.9		
Cc1nc2ccc(F)c(-c3cc4c([nH]3)[C@@H]([C@H](C)O)NC4=O)c2nc1NC1CC1 [Example 353, (6S)-2-(3-(cyclopropylamino)-6-fluoro-2-methyl-5-quinoxalinyl)-6-((1S)-1-hydroxyethyl)-5,6-dihydropyrrolo[3,4-b]pyrrol-4(1H)-one]	109	2.26	2.3		

Continued, in another order:

IC50 (KMS-12-BM cell lines) [nM]	IC50 (Pim-1; [1]) [nM]	IC50 (Pim-2; [2]) [nM]	Structure (SMILES)	IC50 (Pim-1) [nM]	IC50 (Pim-2) [nM]
> 40000	39.9	47.4	Cc1nc2cccc(-c3cc4c([nH]3)CCNC4=O)c2nc1-c1ccccc1F [Example 428, 2-(3-(2-Fluorophenyl)-2-methylquinoxalin-5-yl)-6,7-dihydro-1H-pyrrolo[3,2-c]pyridin-4(5H)-one]		
> 40000	82.4	82.1	Cc1nc2cccc(-c3cc4c([nH]3)CCNC4=O)c2nc1-c1ccccc1 [Example 424, 2-(2-Methyl-3-phenylquinoxalin-5-yl)-6,7-dihydro-1H-pyrrolo[3,2-c]pyridin-4(5H)-one]		
279	2.91	3.56	Cc1nc2ccc(F)c(-c3cc(C(N)=O)c(C)[nH]3)c2nc1NC1(C)CC1 [Example 417, 5-(6-fluoro-2-methyl-3-((1-methylcyclopropyl)amino)quinoxalin-5-yl)-2-methyl-1H-pyrrole-3-carboxamide]		
76	0.199	0.193	COCCn1c(NC(C)(C)C)nc2c(-c3cc4c([nH]3)[C@@H](C)NC4=O)cccc2c1=O [Example 459, 2-(tert-butylamino)-3-(2-methoxyethyl)-8-((6R)-6-methyl-4-oxo-1,4,5,6-tetrahydropyrrolo[3,4-b]pyrrol-2-yl)-4(3H)-quinazolinone]		
> 40000	66.5	239	Cc1nc2cccc(-c3cc4c([nH]3)CCNC4=O)c2nc1-c1ccncc1Cl [Example 411, 2-(3-(3-chloro-4-pyridinyl)-2-methyl-5-quinoxalinyl)-1,5,6,7-tetrahydro-4H-pyrrolo[3,2-c]pyridin-4-one]		
2610	12.3	37.1	Cc1nc2cccc(-c3cc4n(c3)C(=O)NC4=O)c2nc1NC(C)(C)C [Example 422, 6-(3-(tert-Butylamino)-2-methyl-5-quinoxalinyl)-1H-pyrrolo[1,2-c]imidazole-1,3(2H)-dione]		
8400	30.9	40.9	Cc1nc2cccc(-c3cc4c([nH]3)CCNC4=O)c2nc1-c1ccoc1C [Example 433, 2-(2-Methyl-3-(2-methylfuran-3-yl)quinoxalin-5-yl)-6,7-dihydro-1H-pyrrolo[3,2-c]pyridin-4(5H)-one]		
94	0.554	1.01	C[C@H]1NC(=O)c2cc(-c3cccc4c(=O)n(C)c(OC5(C)CC5)nc34)[nH]c21 [Example 460, 3-methyl-2-((1-methylcyclopropyl)oxy)-8-((6R)-6-methyl-4-oxo-1,4,5,6-tetrahydropyrrolo[3,4-b]pyrrol-2-yl)-4(3H)-quinazolinone]		
122	0.51	0.47	Cc1nc2cccc(-c3cc4c([nH]3)C(CCO)NC4=O)c2nc1NC(C)(C)C (stereo not drawn) [Example 462, 2-(3-(tert-butylamino)-2-methyl-5-quinoxalinyl)-6-(2-hydroxyethyl)-5,6-dihydropyrrolo[3,4-b]pyrrol-4(1H)-one]		

Reference: US9394297B2, “Amides as pim inhibitors” (AMGEN INC., priority 2012, dated 2016)
